# Test results: ChEMBL document CHEMBL3525924, “Cytochrome P450 3A-mediated microsomal biotransformation of 1α,25-dihydroxyvitamin D3 in mouse and human liver: drug-related induction and inhibition of catabolism” (Drug Metab Dispos, 2012)
# pIC50: −log10 of the molar value.
# Assays:
# Format in all cases: ADME
# [1] = Drug metabolism in dexamethasone treated CD1 mouse liver microsomes assessed as metabolite formation at 20 uM after 30 mins by LC/MS analysis in presence of NADPH and CYP1A2 inhibitor furafyline; conditions: 0.5 h
# Liver microsome [2] = assay: Drug metabolism in human liver microsomes assessed as IC50 for clarithromycin-mediated inhibition of metabolite formation at 20 uM after 30 mins by LC/MS analysis; conditions: 0.5 h
# [3] = Drug metabolism in CD1 mouse liver microsomes assessed as metabolite formation at 20 uM after 30 mins by LC/MS analysis in presence of NADPH and CYP2A inhibitor 8-methoxypsoralen; conditions: 0.5 h
# [4] = Drug metabolism in dexamethasone treated CD1 mouse liver microsomes assessed as metabolite formation at 20 uM after 30 mins by LC/MS analysis in presence of NADPH and CYP1A1 inhibitor alpha-naphthoflavone; conditions: 0.5 h
# Liver microsome [5] = assay: Drug metabolism in human liver microsomes assessed as IC50 for docetaxel-mediated inhibition of metabolite formation at 20 uM after 30 mins by LC/MS analysis; conditions: 0.5 h
# Liver microsome [6] = assay: Drug metabolism in human liver microsomes assessed as IC50 for tamoxifen-mediated inhibition of metabolite formation at 20 uM after 30 mins by LC/MS analysis; conditions: 0.5 h
# [7] = Drug metabolism in dexamethasone treated CD1 mouse liver microsomes assessed as metabolite formation at 20 uM after 30 mins by LC/MS analysis in presence of NADPH and CYP2B inhibitor orphenadrine; conditions: 0.5 h
# [8] = Drug metabolism in CD1 mouse liver microsomes assessed as metabolite formation at 20 uM after 30 mins by LC/MS analysis in presence of NADPH and CYP1A2 inhibitor furafyline; conditions: 0.5 h
# [9] = Drug metabolism in dexamethasone treated CD1 mouse liver microsomes assessed as metabolite formation at 20 uM after 30 mins by LC/MS analysis in presence of NADPH and CYP2D inhibitor quinine; conditions: 0.5 h
# Liver microsome [10] = assay: Drug level in human liver microsomes assessed as retention time treated with 20 uM of 1alpha,25(OH)2D3 after 30 mins by LC/MS analysis in presence of NADPH; conditions: 0.5 h
# [11] = Drug metabolism in CD1 mouse liver microsomes assessed as metabolite formation at 20 uM after 30 mins by LC/MS analysis in presence of NADPH and CYP2D inhibitor quinine; conditions: 0.5 h
# [12] = Drug level in dexamethasone treated CD1 mouse liver microsomes treated with 20 uM of 1alpha,25(OH)2D3 after 30 mins by LC/MS analysis in presence of NADPH relative to vehicle treated mouse; conditions: 0.5 h
# [13] = Drug metabolism in prednisone treated CD1 mouse liver microsomes assessed as metabolite formation at 20 uM after 30 mins by LC/MS analysis in presence of NADPH and CYP2B inhibitor orphenadrine; conditions: 0.5 h
# [14] = Drug metabolism in dexamethasone treated CD1 mouse liver microsomes assessed as metabolite formation at 20 uM after 30 mins by LC/MS analysis in presence of NADPH and CYP2A inhibitor 8-methoxypsoralen; conditions: 0.5 h
# [15] = Drug metabolism in dexamethasone treated CD1 mouse liver microsomes assessed as metabolite formation at 20 uM after 30 mins by LC/MS analysis in presence of NADPH and CYP2C inhibitor sulfaphenazole; conditions: 0.5 h
# [16] = Drug metabolism in CD1 mouse liver microsomes assessed as metabolite formation at 20 uM after 30 mins by LC/MS analysis in presence of NADPH and CYP2C inhibitor sulfaphenazole; conditions: 0.5 h
# [17] = Drug metabolism in CD1 mouse liver microsomes assessed as metabolite formation at 20 uM after 30 mins by LC/MS analysis in presence of NADPH and CYP2E inhibitor di-ethyldithiocarbamate; conditions: 0.5 h
# [18] = Drug metabolism in prednisone treated CD1 mouse liver microsomes assessed as metabolite formation at 20 uM after 30 mins by LC/MS analysis in presence of NADPH and CYP1A2 inhibitor furafyline; conditions: 0.5 h
# [19] = Drug metabolism in CD1 mouse liver microsomes assessed as metabolite formation at 20 uM after 30 mins by LC/MS analysis in presence of NADPH and CYP2B inhibitor orphenadrine; conditions: 0.5 h
# [20] = Drug metabolism in prednisone treated CD1 mouse liver microsomes treated with 20 uM of 1alpha,25(OH)2D3 assessed as metabolite formation after 30 mins by LC/MS analysis in presence of NADPH; conditions: 0.5 h
# [21] = Drug metabolism in prednisone treated CD1 mouse liver microsomes assessed as metabolite formation at 20 uM after 30 mins by LC/MS analysis in presence of NADPH and CYP1A1 inhibitor alpha-naphthoflavone; conditions: 0.5 h
# [22] = Drug metabolism in dexamethasone treated CD1 mouse liver microsomes assessed as metabolite formation at 20 uM after 30 mins by LC/MS analysis in presence of NADPH and CYP2E inhibitor di-ethyldithiocarbamate; conditions: 0.5 h
# [23] = Drug metabolism in prednisone treated CD1 mouse liver microsomes assessed as metabolite formation at 20 uM after 30 mins by LC/MS analysis in presence of NADPH and CYP2D inhibitor quinine; conditions: 0.5 h
# [24] = Drug metabolism in prednisone treated CD1 mouse liver microsomes assessed as metabolite formation at 20 uM after 30 mins by LC/MS analysis in presence of NADPH and CYP2E inhibitor di-ethyldithiocarbamate; conditions: 0.5 h
# [25] = Drug metabolism in CD1 mouse liver microsomes assessed as metabolite formation at 20 uM after 30 mins by LC/MS analysis in presence of NADPH and CYP1A1 inhibitor alpha-naphthoflavone; conditions: 0.5 h
# Liver microsome [26] = assay: Drug metabolism in human liver microsomes assessed as IC50 for ritonavir-mediated inhibition of metabolite formation at 20 uM after 30 mins by LC/MS analysis; conditions: 0.5 h
# [27] = Drug metabolism in prednisone treated CD1 mouse liver microsomes assessed as metabolite formation at 20 uM after 30 mins by LC/MS analysis in presence of NADPH and CYP2A inhibitor 8-methoxypsoralen; conditions: 0.5 h
# Liver microsome [28] = assay: Drug metabolism in human liver microsomes assessed as IC50 for ketoconazole-mediated inhibition of metabolite formation at 20 uM after 30 mins by LC/MS analysis; conditions: 0.5 h
# [29] = Drug metabolism in prednisone treated CD1 mouse liver microsomes assessed as metabolite formation at 20 uM after 30 mins by LC/MS analysis in presence of NADPH and CYP2C inhibitor sulfaphenazole; conditions: 0.5 h
# Cytochrome P450 3A4 [30] = molecular target: T1, Cytochrome P450 3A4 (Homo sapiens, UniProt P08684); assay: Drug metabolism assessed as 1 uM ketoconazole-mediated inhibition of human CYP3A4-mediated metabolite formation by LC/MS analysis; conditions: recombinant enzyme
# Cytochrome P450 3A4 [31] = molecular target: T1, Cytochrome P450 3A4; assay: Drug metabolism assessed as 100 uM tamoxifen-mediated inhibition of human CYP3A4-mediated metabolite formation by LC/MS analysis; conditions: recombinant enzyme
# Cytochrome P450 3A4 [32] = molecular target: T1, Cytochrome P450 3A4; assay: Drug metabolism assessed as 10 uM ritonavir-mediated inhibition of human CYP3A4-mediated metabolite formation by LC/MS analysis; conditions: recombinant enzyme
# Cytochrome P450 3A4 [33] = molecular target: T1, Cytochrome P450 3A4; assay: Drug metabolism assessed as 100 uM troleandromycin-mediated inhibition of human CYP3A4-mediated metabolite formation by LC/MS analysis; conditions: recombinant enzyme
# T1 sequence (P08684 whole entry): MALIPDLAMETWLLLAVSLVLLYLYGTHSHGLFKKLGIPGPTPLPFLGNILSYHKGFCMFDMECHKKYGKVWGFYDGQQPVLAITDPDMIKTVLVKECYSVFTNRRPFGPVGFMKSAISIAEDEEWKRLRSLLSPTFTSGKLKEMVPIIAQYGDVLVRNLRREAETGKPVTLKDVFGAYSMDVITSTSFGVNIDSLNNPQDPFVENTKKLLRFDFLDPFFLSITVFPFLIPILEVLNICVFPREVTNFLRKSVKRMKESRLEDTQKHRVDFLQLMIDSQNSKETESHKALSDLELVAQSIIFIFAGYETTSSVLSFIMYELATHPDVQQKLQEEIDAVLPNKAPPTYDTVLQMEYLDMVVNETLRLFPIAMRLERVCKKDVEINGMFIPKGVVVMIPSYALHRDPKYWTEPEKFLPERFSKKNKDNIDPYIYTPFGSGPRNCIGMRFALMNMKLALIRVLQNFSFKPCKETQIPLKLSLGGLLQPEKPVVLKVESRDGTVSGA
Compound,Drug metabolism [1],pIC50 (Liver microsome [2]),Drug metabolism [3],Drug metabolism [4],pIC50 (Liver microsome [5]),pIC50 (Liver microsome [6]),Drug metabolism [7],Drug metabolism [8],Drug metabolism [9],Retention_time (Liver microsome [10]),Drug metabolism [11],Drug metabolism [13],Drug metabolism [14],Drug metabolism [15],Drug metabolism [16],Drug metabolism [17],Drug metabolism [18],Drug metabolism [19],Drug metabolism [20],Drug metabolism [21],further results
C=C1/C(=C\C=C2/CCC[C@]3(C)[C@@H]([C@H](C)CC[C@@H](O)C(C)(C)O)CC[C@@H]23)C[C@@H](O)C[C@@H]1O,metabolite_detected,< 4.52,metabolite_detected,metabolite_detected,7.11,< 4.40,metabolite_detected,metabolite_detected,metabolite_detected,8.8 min,metabolite_detected,metabolite_detected,metabolite_detected,metabolite_detected,metabolite_detected,metabolite_detected,metabolite_detected,metabolite_detected,metabolite_detected,metabolite_detected,fold change (FC) [12]: 17; Drug metabolism [22]: metabolite_detected; Drug metabolism [23]: metabolite_detected; Drug metabolism [24]: metabolite_detected; Drug metabolism [25]: metabolite_detected; pIC50 (Liver microsome [26]): 7.55; Drug metabolism [27]: metabolite_detected; pIC50 (Liver microsome [28]): 7.38; Drug metabolism [29]: metabolite_detected
C=C1/C(=C\C=C2/CCC[C@]3(C)[C@@H]([C@H](C)C[C@H](O)CC(C)(C)O)CC[C@@H]23)C[C@@H](O)C[C@@H]1O,metabolite_detected,< 4.52,metabolite_detected,metabolite_detected,7.42,< 4.40,metabolite_detected,metabolite_detected,metabolite_detected,8.5 min,metabolite_detected,metabolite_detected,metabolite_detected,metabolite_detected,metabolite_detected,metabolite_detected,metabolite_detected,metabolite_detected,metabolite_detected,metabolite_detected,fold change (FC) [12]: 43; Drug metabolism [22]: metabolite_detected; Drug metabolism [23]: metabolite_detected; Drug metabolism [24]: metabolite_detected; Drug metabolism [25]: metabolite_detected; pIC50 (Liver microsome [26]): 7.89; Drug metabolism [27]: metabolite_detected; pIC50 (Liver microsome [28]): 7.40; Drug metabolism [29]: metabolite_detected
C=C1/C(=C\C=C2/CCC[C@]3(C)[C@@H]([C@H](C)C[C@@H](O)CC(C)(C)O)CC[C@@H]23)C[C@@H](O)C[C@@H]1O,metabolite_detected,< 4.52,metabolite_detected,metabolite_detected,7.42,< 4.40,metabolite_detected,metabolite_detected,metabolite_detected,9.7 min,metabolite_detected,metabolite_detected,metabolite_detected,metabolite_detected,metabolite_detected,metabolite_detected,metabolite_detected,metabolite_detected,metabolite_detected,metabolite_detected,Drug metabolism [12]: metabolite_detected; Drug metabolism [22]: metabolite_detected; Drug metabolism [23]: metabolite_detected; Drug metabolism [24]: metabolite_detected; Drug metabolism [25]: metabolite_detected; pIC50 (Liver microsome [26]): 7.80; Drug metabolism [27]: metabolite_detected; pIC50 (Liver microsome [28]): 7.49; Drug metabolism [29]: metabolite_detected
C=C1/C(=C\C=C2/CCC[C@]3(C)[C@@H]([C@H](C)CC[C@H](O)C(C)(C)O)CC[C@@H]23)C[C@@H](O)C[C@@H]1O,metabolite_detected,< 4.52,metabolite_detected,metabolite_detected,7.92,< 4.40,metabolite_detected,metabolite_detected,metabolite_detected,9 min,metabolite_detected,metabolite_detected,metabolite_detected,metabolite_detected,metabolite_detected,metabolite_detected,metabolite_detected,metabolite_detected,metabolite_detected,metabolite_detected,Drug metabolism [12]: metabolite_detected; Drug metabolism [22]: metabolite_detected; Drug metabolism [23]: metabolite_detected; Drug metabolism [24]: metabolite_detected; Drug metabolism [25]: metabolite_detected; pIC50 (Liver microsome [26]): 8.10; Drug metabolism [27]: metabolite_detected; pIC50 (Liver microsome [28]): 6.25; Drug metabolism [29]: metabolite_detected
Cc1nnc2n1-c1ccc(Cl)cc1C(c1ccccc1Cl)=NC2 [TRIAZOLAM],,,,,,,,,,,,,,,,,,,,,Drug metabolism (Cytochrome P450 3A4 [30]): metabolite_not_detected; Drug metabolism (Cytochrome P450 3A4 [31]): metabolite_not_detected; Drug metabolism (Cytochrome P450 3A4 [32]): metabolite_not_detected; Drug metabolism (Cytochrome P450 3A4 [33]): metabolite_not_detected
